Laboratory results published in article PMC10857906, “PROTAC-mediated NR4A1 degradation as a novel strategy for cancer immunotherapy” (The Journal of Experimental Medicine, 2024).

Experiments:
[1] = biological target: T1, NR4A1 (Homo sapiens, UniProt P22736); assay: NR4A1 degradation in WM164 and M229 human melanoma cells (immunoblotting); type: cell-based; conditions: 16 h
T1 construct: NR-V04 effectively promoted the degradation of NR4A1 in two human melanoma cell lines within 16 h; endogenous in cells; host or cells: CHL-1, A375, WM164, M229 human melanoma cells
Protocol: Human melanoma cell lines: A375 and CHL-1 (gifts from Dr. D. Zhou, the University of Texas Health Science Center, San Antonio, TX, USA) were cultured in Dulbecco’s Modified Eagles’ Medium (DMEM, D5796; Sigma-Aldrich), WM164 and M229 (gifts from Dr. K.S.M. Smalley’s lab) were cultured in RPMI-1640 (R8758; Sigma-Aldrich). Mouse melanoma cell lines: B16F10 (CRL-6475, ATCC) was cultured in DMEM, SW1 and SM1 (gift from Dr. K.S.M. Smalley, Moffitt Cancer Center, Tampa, FL, USA) were cultured in RPMI. Human epithelial kidney cell lines: HEK293T (293T, CRL-3216; ATCC) and Vhl-KO-293T (gift from Dr. D. Zhou, the University of Texas Health Science Center, San Antonio, TX, USA) were cultured in DMEM. Mouse colon cancer cell lines: MC38 (ENH204-FP; Kerafast Inc.) was cultured in DMEM supplemented with 1 mM glutamine, […] non-essential amino acids (11140050; Thermo Fisher Scientific), 1 mM sodium pyruvate (11360070; Thermo Fisher Scientific), and 10 mM HEPES (15630080; Thermo Fisher Scientific). […]
Samples were lysed using radioimmunoprecipitation assay buffer (RIPA) lysis buffer (150 mM NaCl, 5 mM EDTA, 50 mM Tris pH 8.0, 0.5% sodium deoxycholate, 1% NP-40, 0.1% SDS) supplemented with 1 mM dithiothreitol and protease inhibitors. The lysates were separated by SDS-PAGE and analyzed using standard western blotting procedures ([Khan et al., 2019]). […]

[2] = system: splenic B cells; assay: B cell proliferation assay (splenic B cells, B16F10 lysate, Cell Trace Violet); type: cell-based, mouse; conditions: WT B cells with B16F10 lysates, 250 or 500 nM, 24 h
Protocol: B cells were isolated from the spleen by using EasySep Mouse B cell Isolation Kit (19854; STEMCELL) and cultured in RPMI supplemented with […] non-essential amino acids (11140050; Thermo Fisher Scientific), 1 mM sodium pyruvate (11360070; Thermo Fisher Scientific), 1 mM Glutamax, 10 mM HEPES (15630080; Thermo Fisher Scientific), 0.1% 2-mercaptoethanol (21985023; Thermo Fisher Scientific), 10% FBS (F2442; Sigma-Aldrich) and 100 U/ml penicillin, and 100 µg/ml streptomycin (P4333; Sigma-Aldrich). B cells were stained with 5 nM CellTrace Violet Cell (C34557; Thermo Fisher Scientific) for 8 min in a 37°C water bath. B cells were plated at a concentration of 5 × 10^5 cells per 200 μl in round-bottom 96-well plates treated with 0.1% B16F10 melanoma cell lysis or 10 µg/ml goat anti-mouse IgM F(ab′)2 (115-006-020; Jackson ImmunoResearch). B cells were treated with NR-V04 or DMSO for 24 h and collected for flow cytometry analysis.
Mouse tumors were excised and ∼200 mg of tumor tissue was enzymatically and mechanically digested using the mouse Tumor Dissociation Kit (Miltenyi Biotec) to obtain a single-cell suspension. […] Flow cytometry was performed on a three laser Cytek Aurora Cytometer (Cytek Biosciences) and analyzed using FlowJo software (BD Biosciences). […]

T1 sequence (P22736 whole entry): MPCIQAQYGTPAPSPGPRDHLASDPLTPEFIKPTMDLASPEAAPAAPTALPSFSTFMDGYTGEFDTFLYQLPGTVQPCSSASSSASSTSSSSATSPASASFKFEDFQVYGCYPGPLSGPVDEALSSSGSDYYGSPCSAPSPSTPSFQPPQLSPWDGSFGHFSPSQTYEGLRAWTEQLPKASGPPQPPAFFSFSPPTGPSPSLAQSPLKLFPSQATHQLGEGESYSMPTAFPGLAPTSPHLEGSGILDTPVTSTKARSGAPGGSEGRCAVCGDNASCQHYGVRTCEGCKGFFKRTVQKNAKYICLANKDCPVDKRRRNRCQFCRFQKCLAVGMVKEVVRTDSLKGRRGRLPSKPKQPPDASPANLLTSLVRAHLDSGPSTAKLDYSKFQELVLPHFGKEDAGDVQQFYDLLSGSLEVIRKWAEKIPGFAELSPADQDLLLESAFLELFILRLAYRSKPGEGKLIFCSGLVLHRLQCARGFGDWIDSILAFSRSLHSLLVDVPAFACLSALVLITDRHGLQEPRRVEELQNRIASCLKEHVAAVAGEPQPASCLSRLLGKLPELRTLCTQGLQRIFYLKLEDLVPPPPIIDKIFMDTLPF

CC1=C(O)C(=O)C=C2C1=CC=C1[C@@]2(C)CC[C@@]2(C)[C@@H]3C[C@](C)(C(=O)NCCOCCOCCOCCOCC(=O)N[C@H](C(=O)N4C[C@H](O)C[C@H]4C(=O)N[C@@H](C)c4ccc(-c5scnc5C)cc4)C(C)(C)C)CC[C@]3(C)CC[C@]12C [NR-V04]
NR4A1 protein level ([1]; M229 human melanoma cells): reduced NR4A1 protein level | NR4A1 protein level ([1]; WM164 human melanoma cells): reduced NR4A1 protein level | B cell proliferation [2]: significantly increased B cell proliferation | NR4A1 in B cells [2]: led to NR4A1 degradation in B cells
